Reference: paper PMC7435983, “Galantamine-Curcumin Hybrids as Dual-Site Binding Acetylcholinesterase Inhibitors” (Molecules, 2020)
Where two headings read alike, the source gives them in different places. Marks after values point to notes of the source that are not given here.

How the values were obtained:
[1] = target: eeAChE (Electrophorus electricus AChE) (Electrophorus electricus, UniProt O42275); assay: biochemical
Method: As the docking studies were performed on rhAChE, while for the in vitro measurements was used AChE from electric eel (eeAChE), it was reasonably to question their relevance.
AChE activity was assayed as described by Ellman et al., with some modifications. […] The mixtures were incubated for 30 min at room temperature before the addition of 30 μL of the substrate solution (15 μL […], 15 μL 0.6 mM ATCI in buffer, pH 7.6).

Neuro-2A cells [2] = assay: Neurotoxicity test, MTT-dye reduction assay; type: cell-based, Murine; settings: Mus musculus, N2a, 72-h incubation
Method: The neurotoxicity of the GAL-CU hybrids was tested on Neuro-2A cells, as described in Materials and methods. […] Only five of the hybrids were less toxic than CU. One of them, compound 8b, is among the best-scored compounds; two of them, compounds 4e and 4f, are from the middle GoldScore range; and two of them, compounds 4a and 4b, belong to the low GoldScore range.
Murine neuroblastoma Neuro-2A cells (German collection DSMZ, Braunschweig, Germany) were cultivated under standard conditions: complete medium (90% DMEM, 10% heat-inactivated FBS, and non-essential amino acids); 37 °C and 5% CO2 in fully humidified atmosphere. The cell line was kept in the logarithmic growth phase by splitting 1:4 once a week using trypsin/EDTA. About 30% of the cells grew like neuronal cells. For the experimental evaluation of the cytotoxicity Neuro-2A, cells were plated in 96-well flat-bottomed cell culture plates at the recommended density of 1 × 10^6 cells/25cm^2. After 24 h, the cells were treated with various concentrations of the investigational compounds, and after 72-h incubation, an MTT-dye reduction assay was performed. Briefly, at the end of incubation, an MTT stock solution (10mg/mL in PBS) was added (0.01 mL/well). Plates were further incubated at 37 °C for 4 h. Next, the formazan crystals were dissolved by the addition of 0.110 mL/well 5% formic acid in 2-propanol (v/v). Absorption was measured at 580nm wavelength on an automated ELISA reader Labexim LMR1. At least six wells per concentration were used, and data were processed using the GraphPad Prism 5.0 software 2.0 (San Diego, CA, USA).

[3] = Prediction of PK parameters by QSPR models
From the text: The key PK parameters were predicted by quantitative […] (QSPRs) models derived previously. Three PK parameters were modelled: the steady state volume of distribution (VD^ss), free fraction of drug in plasma (fu) and unbound clearance (CLu). […]

[4] = cited from earlier work
Neuro-2A cells [5] = settings: cited from earlier work

Chain of eeAChE (Electrophorus electricus AChE) (O42275 24-633): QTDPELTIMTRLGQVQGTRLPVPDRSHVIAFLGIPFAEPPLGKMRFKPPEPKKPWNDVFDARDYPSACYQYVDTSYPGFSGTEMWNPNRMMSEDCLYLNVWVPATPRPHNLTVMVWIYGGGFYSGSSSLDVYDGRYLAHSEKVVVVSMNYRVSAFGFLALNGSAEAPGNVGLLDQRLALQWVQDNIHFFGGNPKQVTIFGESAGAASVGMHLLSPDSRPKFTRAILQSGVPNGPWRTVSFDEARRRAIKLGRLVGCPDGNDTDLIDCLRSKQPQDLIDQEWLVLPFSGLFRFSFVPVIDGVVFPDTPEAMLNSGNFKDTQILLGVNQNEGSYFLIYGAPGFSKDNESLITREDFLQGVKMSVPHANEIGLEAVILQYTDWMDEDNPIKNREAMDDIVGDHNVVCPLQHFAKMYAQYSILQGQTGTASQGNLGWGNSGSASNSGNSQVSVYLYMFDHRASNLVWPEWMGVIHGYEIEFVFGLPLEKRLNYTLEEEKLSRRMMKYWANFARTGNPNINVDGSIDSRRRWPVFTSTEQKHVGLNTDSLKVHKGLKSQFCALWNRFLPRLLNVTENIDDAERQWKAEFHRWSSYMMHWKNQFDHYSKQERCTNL

Question: Which IC50 [1] does the source give for `COc1ccc2c3c1O[C@H]1C[C@@H](O)C=C[C@@]31CCN(CCCCC(=O)/C=C/c1ccccc1)C2` [4a] here?
Answer: The IC50 was 0.046 µM.

Question: And the “Times More Active Than GAL” value [1]?
Answer: Its value is 75.

Question: What about the IC50 (Neuro-2A cells [2]) of the same compound?
Answer: The IC50 was 30.7 µM.

Question: With `COc1ccc(/C=C/C(=O)CCCCN2CC[C@@]34C=C[C@H](O)C[C@@H]3Oc3c(OC)ccc(c34)C2)cc1` [4b] as the compound, how does the IC50 [1] read?
Answer: Its IC50 is 0.02 µM.

Question: What about the “Times More Active Than GAL” value [1] of the same compound?
Answer: Its value is 186.

Question: And the IC50 (Neuro-2A cells [2])?
Answer: Its IC50 is 52.5 µM.

Question: For `COc1cccc(/C=C/C(=O)CCCCN2CC[C@@]34C=C[C@H](O)C[C@@H]3Oc3c(OC)ccc(c34)C2)c1` [4c], which IC50 (Neuro-2A cells [2]) is on record?
Answer: The IC50 was 24.1 µM.

Question: Which IC50 [1] does the source give for `COc1ccc2c3c1O[C@H]1C[C@@H](O)C=C[C@@]31CCN(CCCCC(=O)/C=C/c1ccc3c(c1)OCO3)C2` [4e] here?
Answer: The IC50 was 0.036 µM.

Question: And the “Times More Active Than GAL” value [1]?
Answer: The value was 98.

Question: And the IC50 (Neuro-2A cells [2])?
Answer: The IC50 was 42.9 µM.

Question: For `COc1ccc2c3c1O[C@H]1C[C@@H](O)C=C[C@@]31CCN(CCCCC(=O)/C=C/c1ccc(C)cc1)C2` [4f], which IC50 [1] is on record?
Answer: The IC50 was 0.033 µM.

Question: And the “Times More Active Than GAL” value [1]?
Answer: Its value is 110.

Question: What about the IC50 (Neuro-2A cells [2]) of the same compound?
Answer: The IC50 was 34.4 µM.

Question: Which IC50 (Neuro-2A cells [2]) does the source give for `COc1ccc2c3c1O[C@H]1C[C@@H](O)C=C[C@@]31CCN(CCCCC(=O)/C=C/c1cccc(C)c1)C2` [4g] here?
Answer: Its IC50 is 23.7 µM.

Question: Which IC50 (Neuro-2A cells [2]) does the source give for `COc1ccc2c3c1O[C@H]1C[C@@H](O)C=C[C@@]31CCN(CCCCC(=O)/C=C/c1ccc(C)c(C)c1)C2` [4h] here?
Answer: Its IC50 is 21.9 µM.

Question: With `COc1ccc2c3c1O[C@H]1C[C@@H](O)C=C[C@@]31CCN(Cc1cccc(/C=C/C(=O)c3ccccc3)c1)C2` [6a] as the compound, how does the IC50 (Neuro-2A cells [2]) read?
Answer: Its IC50 is 12.1 µM.

Question: Which IC50 (Neuro-2A cells [2]) does the source give for `COc1ccc(C(=O)/C=C/c2cccc(CN3CC[C@@]45C=C[C@H](O)C[C@@H]4Oc4c(OC)ccc(c45)C3)c2)cc1` [6b] here?
Answer: Its IC50 is 7.91 µM.

Question: With `COc1ccc(/C=C/C(=O)c2cccc(CN3CC[C@@]45C=C[C@H](O)C[C@@H]4Oc4c(OC)ccc(c45)C3)c2)cc1` [8b] as the compound, how does the IC50 [1] read?
Answer: Its IC50 is 0.086 µM.

Question: And the “Times More Active Than GAL” value [1]?
Answer: The value was 41.

Question: And the IC50 (Neuro-2A cells [2])?
Answer: The IC50 was 28.9 µM.

Question: Which IC50 (Neuro-2A cells [2]) does the source give for `COc1cccc(/C=C/C(=O)c2cccc(CN3CC[C@@]45C=C[C@H](O)C[C@@H]4Oc4c(OC)ccc(c45)C3)c2)c1` [8c] here?
Answer: The IC50 was 25.6 µM.

Question: For `COc1ccc2c3c1O[C@H]1C[C@@H](O)C=C[C@@]31CCN(Cc1cccc(C(=O)/C=C/c3ccc(C)cc3)c1)C2` [8f], which IC50 (Neuro-2A cells [2]) is on record?
Answer: Its IC50 is 24.3 µM.

Question: For `COc1ccc2c3c1O[C@H]1C[C@@H](O)C=C[C@@]31CCN(Cc1cccc(C(=O)/C=C/c3cccc(C)c3)c1)C2` [8g], which IC50 (Neuro-2A cells [2]) is on record?
Answer: The IC50 was 17.8 µM.

Question: With `COc1ccc2c3c1O[C@H]1C[C@@H](O)C=C[C@@]31CCN(Cc1cccc(C(=O)/C=C/c3ccc(C)c(C)c3)c1)C2` [8h] as the compound, how does the IC50 (Neuro-2A cells [2]) read?
Answer: The IC50 was 25 µM.

Question: With `COc1cc(/C=C/C(=O)CC(=O)/C=C/c2ccc(O)c(OC)c2)ccc1O` [CU, (1E,6E)-1,7-Bis(4-hydroxy-3-methoxyphenyl)hepta-1,6-diene-3,5-dione, reference compound] as the compound, how does the IC50 (Neuro-2A cells [2]) read?
Answer: Its IC50 is 26.3 µM.

Question: What does the source list for `COc1ccc2c3c1O[C@H]1C[C@@H](O)C=C[C@@]31CCN(C)C2` [GAL, Galantamine]?
Answer: half-life [3]: 4.74 h; VDss [4]: 2.30 ^a L/kg; fu ([4]; free fraction of drug in plasma): 0.83 ^a; CL ([4]; total clearance): 0.336 ^a L/h/kg; IC50 (Neuro-2A cells [5]): > 50 µM
